The ED50 is the midpoint of the dose-response relation. Usually EC50 stands for the midpoint of the concentration-response curve.

The structures appear in SMILES notation. “And” between values parts separate entries of the source, which are not always exact repeats. Equal values may be shown once. “Also recorded” adds a separate entry of the source. Read-outs that look alike come from different tables or passages of the source.

Data set [1] concerns Sprague-Dawley rats. Briefly: animal or person. As to conditions: for Approximate therapeutic index / Minimal lethal dose: rats. As to the method:
Adult male Sprague-Dawley rats (250-300 g) were selected for the experiment. […] The anesthesia effects of the compounds were assessed in rats using a LORR assay and a period >30 s was considered as an indicator of general anesthesia.

Data set [2] has as its system Sprague-Dawley rats. Briefly: Pharmacological characteristics at equivalent doses (2ED50), Group A compounds. The data set is classed as in vivo. Details: Sedation duration: unit not given here. Particulars: 2ED50, tail vein; for Types and incidence of adverse reactions: (animals affected/animals).
Data set [3] concerns H295R cell line. Briefly: Adrenocortical function in vitro test: secretion of cortisol and corticosterone, Group A compounds. Type of data set: cell-based. As to conditions: H295 cells; for EC50: 0.1-10000 nM, HPLC-MS/MS.
The test system of data set [4] is Sprague-Dawley rats. Particulars: for Recovery time after stopping infusion: LORR maintained for 1 hour; for Recovery time after stopping infusion / Onset time: 2 times the MIR; for Onset time / Types and incidence of adverse reactions: continuous infusion; for Types and incidence of adverse reactions: (animals affected/animals). As to the method:
Adult male Sprague-Dawley rats with body weight ranging from 250 to 300 gm were selected for continuous infusion test. […] Time to recovery of righting reflex from stopping infusion, and time to fully awake from stopping infusion were recorded.

The subject of data set [5] is Sprague-Dawley rats. Briefly: animal or person. Type of data set: in vivo. Particulars: rats; for ED50: LORR, up and down method, tail vein, class symbols. From the text: Evaluating indicator: The end point of anesthesia: LORR was used as the end point of anesthesia; General anesthesia effect: the disappearance of forepaw righting reflex in rats lasting for 30 seconds is taken as the index of general anesthesia effect; Anesthesia recovery index: the recovery of rat forepaw righting reflex was used as the index of anesthesia recovery.

The subject of data set [6] is Sprague-Dawley rats. Briefly: Pharmacological effect and adverse reactions under the equivalent dose (2ED50), Group C compounds. As to conditions: for Righting reflex duration / Sedation duration / Onset time: 2ED50, tail vein, rats, n=8; for Adverse reaction: Convulsions / Adverse reaction: Cough, broken-winded / Adverse reaction: Euphoria / Adverse reaction: Red urine / Adverse reaction: Slower breathing, Tetany convulsion / Adverse reaction: Systemic stiffness, Convulsions, Opisthotonus / Adverse reaction: Tongue stretching / Adverse reaction: Tremor / Adverse reaction: the four limbs rigidity: equivalent dose (2ED50), number of rats of n = 8. The data set is classed as in vivo. From the text:
Evaluation index: onset time: from the completion of drug injection to the disappearance of forepaw righting reflex in rats; Duration of anesthesia: the time from the disappearance of rat forepaw righting reflex to the recovery of rat forepaw righting reflex; Recovery time of anesthesia: the time from the […] to complete recovery;

In data set [7] the test system is Sprague-Dawley rats. Type of data set: in vivo. Particulars: tail vein.
[8] abbreviates: LORR in rats, tail vein, brackets = 95% confidence limit.
Where [9] appears, read: read-out: EC50 (Corticosterone).
Where [10] appears, read: Homo sapiens, read-out: EC50 (Corticosterone).
[11] abbreviates: Homo sapiens, read-out: EC50 (Cortisol).
Where [12] appears, read: Rattus norvegicus, read-out: ED50.

With `COC(=O)C1=C(OC(=O)c2ccnn2[C@H](C)c2ccccc2)CCC1` [Compound A20], the ED50 result in data set [1] (setting [8]) was “C (C indicates that the measured ED50 is in the range of 1.00-2.00 mg/kg (excluding 1.00 mg/kg, including 2.00 mg/kg))”. In data set [1], this compound came in with an Approximate therapeutic index greater than 10 and a Minimal lethal dose greater than 12 mg/kg. Also, in data set [2], the Onset time worked out at 0.67 ± 0.14 min; the Righting reflex duration was found to be 1.15 ± 0.66 min; the Sedation duration was determined as 7.05 ± 3.95; the “Types and incidence of adverse reactions” value is “Red urine(8/8), Hindlimb; also recorded: rigidity(3/8), General; also recorded: Tremor(1/8)”. Also, in data set [3], the “Corticosterone as an indicator to determine the presence of inhibition” value (from here on “Corticosterone as an indicator … of inhibition”) is 0 and the “Cortisol as an indicator to determine the presence of inhibition” value (“Cortisol as an indicator … of inhibition” below) is on record as 0. The concentration giving a half-maximal response (EC50) in data set [3] (setting [9]) was greater than 100 nM. The EC50 in data set [3] (read-out: EC50 (Cortisol)) was greater than 100 nM. In data set [4], the “Recovery time after stopping infusion” value is 12 to 15 min; the Onset time lay in the range of 5 to 6 min; the “Types and incidence of adverse reactions” value was “Tremor(5/6)”.
Take `C=C=CC1(OC(=O)c2ccnn2[C@H](C)c2ccccc2)COC1` [Compound A24]: the ED50 in data set [1] (Rattus norvegicus) lay in the range of 0.04 to 0.5 mg/kg. Further, in data set [1], the Approximate therapeutic index is on record as greater than 31 and the Minimal lethal dose is greater than 6 mg/kg. In data set [2], the Onset time was 0.47 ± 0.09 min; the Righting reflex duration is recorded as 1.47 ± 0.63 min; the “Types and incidence of adverse reactions” value is “Red and urine(8/8), Convulsions(5/ and 8), Hindlimb rigidity (2/8)”. Also, in data set [3], the “Corticosterone as an indicator … of inhibition” value stood at 0 and the “Cortisol as an indicator … of inhibition” value is listed as 0. Further, in data set [3] (setting [10]), the EC50 is greater than 1000 nM. Moreover, the concentration giving a half-maximal response (EC50) in data set [3] (setting [11]) is greater than 1000 nM. In data set [4], the “Recovery time after stopping infusion” value fell in the range of 8 to 12 min; the Onset time was 4 to 5 min; the “Types and incidence of adverse reactions” value is listed as “Tremor(2/6), Tongue; also recorded: stretching(4/6)”.
`C[C@H](c1ccccc1)n1nccc1C(=O)OC1(C)COC1` [Compound A30] yielded an ED50 in data set [1] (Rattus norvegicus) of 1 to 2 mg/kg. In data set [1], this compound came in with an Approximate therapeutic index greater than 6 and a Minimal lethal dose greater than 7 mg/kg. In data set [2], the Onset time is given as 0.3 ± 0.22 min; the Righting reflex duration was 2.6 ± 0.83 min; the “Types and incidence of adverse reactions” value was “Red and urine(8/8), Euphoria(3/8), and Tremor(1/8)”. In addition, in data set [3], the “Corticosterone as an indicator … of inhibition” value is on record as 0 and the “Cortisol as an indicator … of inhibition” value is reported as 0. The EC50 in data set [3] (setting [10]) was greater than 1000 nM. For the same compound, the EC50 in data set [3] (setting [11]) is greater than 1000 nM. Moreover, in data set [4], the “Recovery time after stopping infusion” value lay in the range of 8 to 14 min; the Onset time fell in the range of 3 to 4 min; the “Types and incidence of adverse reactions” value is reported as “Tremor(2/6)”.
The compound `C=C=CC1(OC(=O)c2cc(F)nn2[C@H](C)c2ccccc2)COC1` [Compound A52] displayed an ED50 in data set [1] (Rattus norvegicus) of 0.5 to 1 mg/kg. Further, in data set [1], the Approximate therapeutic index is greater than 16 and the Minimal lethal dose is listed as greater than 11 mg/kg. Also, in data set [2], the Onset time is listed as 0.50 ± 0.08 min; the Righting reflex duration is reported as 2.01 ± 1.00 min; the “Types and incidence of adverse reactions” value was “Red and urine(8/8), Euphoria(3/8), and broken-winded(1/8)”. Besides, in data set [3], the “Corticosterone as an indicator … of inhibition” value worked out at 0 and the “Cortisol as an indicator … of inhibition” value is given as 0. Also, in data set [3] (setting [10]), the EC50 was greater than 1000 nM. Further, the EC50 in data set [3] (setting [11]) was greater than 1000 nM. In data set [4], the “Recovery time after stopping infusion” value is 13 to 18 min; the Onset time lay in the range of 5 to 6 min; the “Types and incidence of adverse reactions” value is listed as “Tongue stretching(4/6),; also recorded: Tremor(4/6)”.
With `COC1CC(OC(=O)c2c(F)cnn2C(C)c2ccccc2)C1` (stereo not shown) [Compound A76], in data set [1] (setting [8]), the median effective dose (ED50) entry was “A (A indicates that the measured ED50 is in the range of 0.04-0.50 mg/kg (including 0.04 and 0.50 mg/kg))”. Also, in data set [1], the Approximate therapeutic index is on record as greater than 10 and the Minimal lethal dose is greater than 2 mg/kg. In data set [2], the Onset time turned out to be 0.36 ± 0.12 min; the Righting reflex duration turned out to be 2.29 ± 0.56 min; the Sedation duration is listed as 9.08 ± 2.16; the “Types and incidence of adverse reactions” value is “Red urine(8/8),; also recorded: Tremor(2/8),; also recorded: Euphoria(1/8)”. Moreover, in data set [3], the “Corticosterone as an indicator … of inhibition” value amounted to 0 and the “Cortisol as an indicator … of inhibition” value stood at 0. In data set [3] (setting [9]), the EC50 was greater than 1000 nM. The EC50 in data set [3] (read-out: EC50 (Cortisol)) is greater than 1000 nM. Also, in data set [4], the “Recovery time after stopping infusion” value fell in the range of 14 to 16 min; the Onset time lay within 3 to 4 min; the “Types and incidence of adverse reactions” value was “Tremor(1/6), Tongue; also recorded: stretching(2/6)”.
For `CC(=O)C1=C(OC(=O)c2c(F)cnn2[C@H](C)c2ccccc2)CCC1` [Compound A90], the ED50 in data set [1] (Rattus norvegicus) was in the range of 1 to 2 mg/kg. In data set [1], the Approximate therapeutic index is given as greater than 5 and the Minimal lethal dose is on record as greater than 10 mg/kg. Also, in data set [2], the Onset time came to 0.51 ± 0.07 min; the Righting reflex duration is on record as 5.21 ± 1.45 min; the “Types and incidence of adverse reactions” value is “Red and urine(8/8), Convulsions(2/ and 8), Nod(1/8)”. Besides, in data set [3], the “Corticosterone as an indicator … of inhibition” value worked out at 0 and the “Cortisol as an indicator … of inhibition” value is listed as 0. Also, the EC50 in data set [3] (setting [10]) was greater than 1000 nM. Also, the EC50 in data set [3] (setting [11]) was greater than 1000 nM. For the same compound, in data set [4], the “Recovery time after stopping infusion” value lay within 2 to 15 min; the Onset time lay in the range of 5 to 6 min; the “Types and incidence of adverse reactions” value is “Tremor(3/6)”.
`CCSCC(=O)c1ccnn1[C@H](C)c1ccccc1` [Compound C9, (R)-2-(ethylthio)-1-(1-(1-phenylethyl)-1H-pyrazol-5-yl)ethan-1-one]: the ED50 in data set [5] (setting [12]) fell in the range of 2 to 10 mg/kg. For the same compound, the Approximate therapeutic index in data set [5] is given as greater than 2.1. Moreover, in data set [6], the Righting reflex duration amounted to 1.56 ± 0.89 min; the Sedation duration is 6.62 ± 0.72 min; the “Adverse reaction: Convulsions” value was 0; the “Adverse reaction: Cough, broken-winded” value turned out to be 0. For the same compound, in data set [6], the “Adverse reaction: Euphoria” value is 0; the “Adverse reaction: Red urine” value is on record as 8; the “Adverse reaction: Slower breathing, Tetany convulsion” value (“Adverse reaction: Slower breathing” for short) was 0; the “Adverse reaction: Systemic stiffness, Convulsions, Opisthotonus” value (“Adverse reaction: Systemic stiffness” for short) stood at 0. In addition, in data set [6], the “Adverse reaction: Tongue stretching” value is given as 0, the “Adverse reaction: Tremor” value was 0 and the “Adverse reaction: the four limbs rigidity” value worked out at 0. In data set [6] (unit s), the Onset time is given as less than 30 s. In data set [7], this compound came in with a Minimal lethal dose greater than 10.2 mg/kg.
Consider `CC#CCOCC(=O)c1cc(F)nn1[C@H](C)c1ccccc1` [Compound C14], for which, in data set [5], the 50% effective dose (ED50) result was “++++ (++++ indicates that the measured ED50 is in the range of 2.00-10.00 mg/kg (excluding 2.00 mg/kg, including 6.00 mg/kg))” and the Approximate therapeutic index is on record as greater than 6.0. Further, in data set [6], the Righting reflex duration was determined as 1.38 ± 0.47 min; the Sedation duration stood at 9.03 ± 1.58 min; the “Adverse reaction: Convulsions” value turned out to be 0; the “Adverse reaction: Cough, broken-winded” value amounted to 0. Further, in data set [6], the “Adverse reaction: Euphoria” value turned out to be 1; the “Adverse reaction: Red urine” value is recorded as 8; the “Adverse reaction: Slower breathing” value is listed as 0; the “Adverse reaction: Systemic stiffness” value is listed as 0. Also, in data set [6], the “Adverse reaction: Tongue stretching” value amounted to 0, the “Adverse reaction: Tremor” value came to 1 and the “Adverse reaction: the four limbs rigidity” value was found to be 0. Moreover, in data set [6] (unit min), the Onset time is less than 60 s. The Minimal lethal dose in data set [7] is reported as greater than 14.5 mg/kg.
On to `CC(=O)COCC(=O)c1cc(F)nn1[C@H](C)c1ccccc1` [Compound C16], for which the ED50 in data set [5] (setting [12]) was in the range of 2 to 10 mg/kg. Also, in data set [6], the Righting reflex duration is 2.26 ± 0.81 min; the Sedation duration was 4.89 ± 0.98 min; the “Adverse reaction: Convulsions” value amounted to 0; the “Adverse reaction: Cough, broken-winded” value was determined as 0. Moreover, in data set [6], the “Adverse reaction: Euphoria” value is given as 0; the “Adverse reaction: Red urine” value came out at 8; the “Adverse reaction: Slower breathing” value is given as 0; the “Adverse reaction: Systemic stiffness” value stood at 0. Also, in data set [6], the “Adverse reaction: Tongue stretching” value turned out to be 1, the “Adverse reaction: Tremor” value worked out at 2 and the “Adverse reaction: the four limbs rigidity” value is listed as 4. In addition, the Onset time in data set [6] (unit s) was less than 30 s. The compound further yielded a Minimal lethal dose in data set [7] greater than 17.0 mg/kg.

The values are drawn from patent publication US12570612B2, “Substituted nitrogen heterocyclic compound and anesthetic effect thereof” (priority 2019, dated 2026).
